# Test results taken from PMC5837865 (Clinical cancer research : an official journal of the …, 2017).
# Where two headings read alike, the source gives them in different places.
# Experiments:
# CYP2E1 = CYP2E1 (Homo sapiens, UniProt P05181); experiment: Cytochrome P450 inhibition; format: biochemical; details: read-out: IC50 CYP2E1
# MDA-MB-468 = experiment: MTT cell proliferation assay; format: cell-based; details: MDA-MB-468 (breast)
# PC-3 cells [1] = experiment: Intracellular levels of PhosE and Etn by LC-MS/MS; format: cell-based, human; details: PC-3, 1 mg/ml treatment, 48h, pH 7.4
# PC-3 cells [2] = experiment: MTT cell proliferation assay; format: cell-based, human; details: pH 7.4
# PC-3 cells [3] = experiment: Intracellular glucose and glutamine levels in cultured cells; format: cell-based, human; details: PC-3, 2 mg/ml, 48h
# CK KD PC-3 cells = experiment: MTT cell survival in choline kinase knockdown cells; format: cell-based, human; details: 0.5 mg/ml, CK KD (siRNA) PC-3 cells, 48h
# DU145 xenografts = experiment: DU145 prostate cancer xenograft tumor growth; format: in vivo, athymic male BALB/c mice
# PC-3 cells [4] = experiment: Annexin-V flow cytometry; format: cell-based, human; details: control ~8%
# Acute oral toxicity = format: in vivo, Sprague-Dawley (SD) rats
# CFPAC = experiment: MTT cell proliferation assay; format: cell-based; details: CFPAC (pancreas)
# Ki67 = Ki67 immunohistochemistry of tumor sections; format: in vivo, athymic male BALB/c mice; details: PC-3-luc xenografts, 40 mg/kg; control tumors ~62%
# [5] = Stability in simulated intestinal fluid; format: in vitro ADME; details: 10 µM
# OVCAR-3 = experiment: MTT cell proliferation assay; format: cell-based; details: OVCAR-3 (ovary)
# CYP1A2 = CYP1A2 (Homo sapiens, UniProt P05177); experiment: Cytochrome P450 inhibition; format: biochemical
# CYP1A2, sequence (P05177 whole entry): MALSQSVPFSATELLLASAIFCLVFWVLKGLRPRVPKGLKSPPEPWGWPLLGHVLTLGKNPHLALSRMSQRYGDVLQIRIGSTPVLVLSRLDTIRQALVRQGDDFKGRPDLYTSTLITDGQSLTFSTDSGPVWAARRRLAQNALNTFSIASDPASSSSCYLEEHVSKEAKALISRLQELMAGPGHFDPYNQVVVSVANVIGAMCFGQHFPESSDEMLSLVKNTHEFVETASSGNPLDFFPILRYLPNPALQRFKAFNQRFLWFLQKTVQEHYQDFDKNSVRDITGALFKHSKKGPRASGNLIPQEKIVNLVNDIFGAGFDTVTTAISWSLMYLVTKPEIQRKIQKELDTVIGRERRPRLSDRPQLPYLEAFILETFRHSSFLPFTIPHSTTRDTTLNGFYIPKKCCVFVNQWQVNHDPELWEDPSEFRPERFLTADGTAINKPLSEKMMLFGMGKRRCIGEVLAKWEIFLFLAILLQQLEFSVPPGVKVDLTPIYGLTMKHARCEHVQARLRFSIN
# [6] = Stability in simulated gastric fluid; format: in vitro ADME; details: 10 µM, SGF pH 1.2, over 1h, LC-MS/MS
# PC-3 cells [7] = experiment: Oxygen consumption rate; format: cell-based, human; details: PC-3, 2 mg/ml, 48h, 1 million cells/ml
# CYP2C8 = CYP2C8 (Homo sapiens, UniProt P10632); experiment: Cytochrome P450 inhibition; format: biochemical; details: read-out: IC50 CYP2C8
# CYP2C8, sequence (P10632 whole entry): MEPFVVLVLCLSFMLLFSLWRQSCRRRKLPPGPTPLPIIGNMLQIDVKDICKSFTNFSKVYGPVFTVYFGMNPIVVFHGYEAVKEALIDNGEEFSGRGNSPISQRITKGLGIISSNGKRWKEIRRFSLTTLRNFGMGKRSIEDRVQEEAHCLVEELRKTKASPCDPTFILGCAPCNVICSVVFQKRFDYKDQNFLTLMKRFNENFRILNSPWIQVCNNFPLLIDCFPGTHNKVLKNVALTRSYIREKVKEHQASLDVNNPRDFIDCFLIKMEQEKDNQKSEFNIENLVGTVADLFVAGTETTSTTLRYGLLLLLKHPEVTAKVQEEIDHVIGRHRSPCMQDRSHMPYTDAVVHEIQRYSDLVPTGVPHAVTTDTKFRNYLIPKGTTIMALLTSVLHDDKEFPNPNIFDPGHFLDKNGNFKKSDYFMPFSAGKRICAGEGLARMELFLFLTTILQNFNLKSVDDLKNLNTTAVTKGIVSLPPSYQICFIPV
# CYP2B6 = CYP2B6 (Homo sapiens, UniProt P20813); experiment: Cytochrome P450 inhibition; format: biochemical; details: read-out: IC50 CYP2B6
# CYP2B6, sequence (P20813 whole entry): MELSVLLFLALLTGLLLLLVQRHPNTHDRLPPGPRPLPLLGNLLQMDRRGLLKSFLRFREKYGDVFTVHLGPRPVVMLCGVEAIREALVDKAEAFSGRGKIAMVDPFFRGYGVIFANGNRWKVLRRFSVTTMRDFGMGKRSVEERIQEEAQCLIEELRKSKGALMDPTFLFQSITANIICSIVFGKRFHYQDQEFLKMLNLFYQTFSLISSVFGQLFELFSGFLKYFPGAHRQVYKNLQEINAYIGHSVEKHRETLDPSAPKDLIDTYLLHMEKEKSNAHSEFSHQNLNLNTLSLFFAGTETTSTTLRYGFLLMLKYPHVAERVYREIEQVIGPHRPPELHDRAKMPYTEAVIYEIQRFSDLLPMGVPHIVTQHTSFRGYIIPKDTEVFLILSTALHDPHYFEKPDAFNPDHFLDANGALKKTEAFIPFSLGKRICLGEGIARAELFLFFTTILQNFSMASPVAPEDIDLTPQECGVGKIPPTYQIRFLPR
# RWPE-1 cells = experiment: MTT cell survival, near-normal prostate cells; format: cell-based; details: 0.5 mg/ml, 48h, pH 7.4, RWPE-1
# [8] = Etn absorption from formulations of different pH/acid; format: in vivo; details: pH 5/7.4; H3PO4/HCl/H2SO4
# [9] = test system: PC-3, DU145 and C42B cells; experiment: MTT cell survival, prostate cancer lines; format: cell-based, human; details: 0.5 mg/ml, 48h, pH 7.4; range over PC-3, DU145 and C42B
# [10] = format: in vivo, BALB/c mice; details: for Cmax / time to reach peak plasma concentration: plasma, label = analyte measured
# PC-3-luc tumors = experiment: Glucose and glutamine levels in tumors by LC-MS/MS; format: in vivo, athymic male BALB/c mice; details: 40 mg/kg Etn-treated PC-3-luc tumors
# p53 transcript = experiment: RT-PCR transcript levels; format: cell-based, human; details: PC-3, 2 mg/ml, 48h
# CYP2C9 = CYP2C9 (Homo sapiens, UniProt P11712); experiment: Cytochrome P450 inhibition; format: biochemical; details: read-out: IC50 CYP2C9
# CYP2C9, sequence (P11712 whole entry): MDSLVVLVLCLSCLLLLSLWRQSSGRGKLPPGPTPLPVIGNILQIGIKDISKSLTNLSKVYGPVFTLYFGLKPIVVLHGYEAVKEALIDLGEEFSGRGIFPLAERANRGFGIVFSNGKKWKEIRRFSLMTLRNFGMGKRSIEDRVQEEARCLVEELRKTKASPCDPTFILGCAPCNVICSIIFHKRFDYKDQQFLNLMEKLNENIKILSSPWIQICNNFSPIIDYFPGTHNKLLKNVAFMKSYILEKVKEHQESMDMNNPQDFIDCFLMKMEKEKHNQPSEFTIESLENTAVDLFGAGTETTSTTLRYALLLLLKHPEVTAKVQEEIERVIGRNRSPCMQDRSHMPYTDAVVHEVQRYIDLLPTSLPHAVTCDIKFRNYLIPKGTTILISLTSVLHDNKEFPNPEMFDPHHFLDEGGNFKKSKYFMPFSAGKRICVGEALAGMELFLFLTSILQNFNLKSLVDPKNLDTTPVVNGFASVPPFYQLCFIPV
# CYP3A4 = CYP3A4 (Homo sapiens, UniProt P08684); experiment: Cytochrome P450 inhibition; format: biochemical; details: read-out: IC50 CYP3A4
# CYP3A4, sequence (P08684 whole entry): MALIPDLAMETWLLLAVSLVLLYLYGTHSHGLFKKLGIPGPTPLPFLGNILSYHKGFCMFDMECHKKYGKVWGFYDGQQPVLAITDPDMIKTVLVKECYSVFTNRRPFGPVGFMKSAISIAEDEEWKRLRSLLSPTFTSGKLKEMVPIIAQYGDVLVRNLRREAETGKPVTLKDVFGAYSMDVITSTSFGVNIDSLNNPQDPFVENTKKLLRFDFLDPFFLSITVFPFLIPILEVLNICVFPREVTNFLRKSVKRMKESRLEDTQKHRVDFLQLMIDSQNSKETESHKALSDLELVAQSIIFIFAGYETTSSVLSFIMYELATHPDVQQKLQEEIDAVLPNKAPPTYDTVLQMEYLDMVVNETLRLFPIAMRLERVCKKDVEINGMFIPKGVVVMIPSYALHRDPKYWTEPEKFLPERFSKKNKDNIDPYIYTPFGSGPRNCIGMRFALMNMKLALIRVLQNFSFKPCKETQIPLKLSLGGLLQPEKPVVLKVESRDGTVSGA
# PC-3-luc xenografts = experiment: PC-3-luc prostate cancer xenograft tumor growth; format: in vivo, athymic male BALB/c mice
# CYP2A6 = CYP2A6 (Homo sapiens, UniProt P11509); experiment: Cytochrome P450 inhibition; format: biochemical; details: read-out: IC50 CYP2A6
# CYP2A6, sequence (P11509 whole entry): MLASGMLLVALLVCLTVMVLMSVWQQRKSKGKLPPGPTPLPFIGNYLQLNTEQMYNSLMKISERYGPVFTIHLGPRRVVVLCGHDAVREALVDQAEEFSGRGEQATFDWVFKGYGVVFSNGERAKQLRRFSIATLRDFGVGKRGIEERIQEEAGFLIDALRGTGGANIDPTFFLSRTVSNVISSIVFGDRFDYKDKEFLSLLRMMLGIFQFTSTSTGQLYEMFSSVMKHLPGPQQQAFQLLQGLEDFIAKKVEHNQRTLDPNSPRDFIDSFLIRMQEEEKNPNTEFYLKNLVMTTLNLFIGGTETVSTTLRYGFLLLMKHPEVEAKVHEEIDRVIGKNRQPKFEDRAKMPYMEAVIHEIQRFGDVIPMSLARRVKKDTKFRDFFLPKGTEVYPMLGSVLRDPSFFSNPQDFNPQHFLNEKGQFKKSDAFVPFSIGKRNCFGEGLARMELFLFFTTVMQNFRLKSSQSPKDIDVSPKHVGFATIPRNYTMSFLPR
# PC-3 cells [11] = experiment: Clonogenic; format: cell-based, human; details: 2 mg/ml, PC-3, pH 7.4
# HIF1-α transcripts = experiment: RT-PCR transcript levels; format: cell-based, human; details: PC-3, 2 mg/ml, 48h
# CYP2C19 = CYP2C19 (Homo sapiens, UniProt P33261); experiment: Cytochrome P450 inhibition; format: biochemical; details: read-out: IC50 CYP2C19
# CYP2C19, sequence (P33261 whole entry): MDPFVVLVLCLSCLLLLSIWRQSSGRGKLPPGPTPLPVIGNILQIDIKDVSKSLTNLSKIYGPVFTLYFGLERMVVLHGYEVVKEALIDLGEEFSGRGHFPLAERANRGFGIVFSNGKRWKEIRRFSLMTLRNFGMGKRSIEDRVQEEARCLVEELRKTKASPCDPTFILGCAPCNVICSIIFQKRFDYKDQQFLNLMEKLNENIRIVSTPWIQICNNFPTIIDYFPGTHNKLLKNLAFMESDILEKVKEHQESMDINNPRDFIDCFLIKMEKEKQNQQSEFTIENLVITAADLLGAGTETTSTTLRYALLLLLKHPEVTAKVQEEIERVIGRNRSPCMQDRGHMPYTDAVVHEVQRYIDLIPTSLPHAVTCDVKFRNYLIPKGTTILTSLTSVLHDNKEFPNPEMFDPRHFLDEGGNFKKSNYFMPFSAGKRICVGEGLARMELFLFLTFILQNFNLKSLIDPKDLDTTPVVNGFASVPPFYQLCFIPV
# HCT116 xenograft = experiment: HCT116 colon cancer xenograft tumor growth; format: in vivo, mice; details: 2 weeks
# CYP2D6 = CYP2D6 (Homo sapiens, UniProt P10635); experiment: Cytochrome P450 inhibition; format: biochemical; details: read-out: IC50 CYP2D6
# CYP2D6, sequence (P10635 whole entry): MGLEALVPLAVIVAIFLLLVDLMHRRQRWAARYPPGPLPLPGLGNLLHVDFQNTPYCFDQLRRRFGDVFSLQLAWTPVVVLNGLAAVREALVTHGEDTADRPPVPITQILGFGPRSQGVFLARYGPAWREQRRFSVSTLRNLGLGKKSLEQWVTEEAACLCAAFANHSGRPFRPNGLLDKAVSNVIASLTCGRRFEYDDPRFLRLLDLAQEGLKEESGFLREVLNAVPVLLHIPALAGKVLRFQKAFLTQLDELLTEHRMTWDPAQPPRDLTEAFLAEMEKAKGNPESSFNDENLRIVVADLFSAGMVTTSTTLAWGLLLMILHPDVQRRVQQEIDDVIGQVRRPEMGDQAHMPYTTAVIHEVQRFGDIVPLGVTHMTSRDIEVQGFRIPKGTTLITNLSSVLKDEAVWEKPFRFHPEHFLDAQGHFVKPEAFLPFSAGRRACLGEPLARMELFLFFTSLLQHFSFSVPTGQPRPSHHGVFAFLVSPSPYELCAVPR
# HIF1-α = HIF1-α protein expression in tumors; format: in vivo, athymic male BALB/c mice; details: PC-3-luc xenografts, Etn-treated
# [12] = test system: cancer cells of varying tissue-origin; experiment: Proliferation and colony formation, cancer cells of varying tissue-origin; format: cell-based
# [13] = format: in vivo, BALB/c mice
# [14] = Blood to plasma concentration ratio; format: in vitro ADME; details: BALB/c mice blood
# [15] = 40 mg/kg oral gavage, pH 5, 4 weeks
# [16] = after 4 weeks of 40 mg/kg oral Etn
# CYP2E1, sequence (P05181 whole entry): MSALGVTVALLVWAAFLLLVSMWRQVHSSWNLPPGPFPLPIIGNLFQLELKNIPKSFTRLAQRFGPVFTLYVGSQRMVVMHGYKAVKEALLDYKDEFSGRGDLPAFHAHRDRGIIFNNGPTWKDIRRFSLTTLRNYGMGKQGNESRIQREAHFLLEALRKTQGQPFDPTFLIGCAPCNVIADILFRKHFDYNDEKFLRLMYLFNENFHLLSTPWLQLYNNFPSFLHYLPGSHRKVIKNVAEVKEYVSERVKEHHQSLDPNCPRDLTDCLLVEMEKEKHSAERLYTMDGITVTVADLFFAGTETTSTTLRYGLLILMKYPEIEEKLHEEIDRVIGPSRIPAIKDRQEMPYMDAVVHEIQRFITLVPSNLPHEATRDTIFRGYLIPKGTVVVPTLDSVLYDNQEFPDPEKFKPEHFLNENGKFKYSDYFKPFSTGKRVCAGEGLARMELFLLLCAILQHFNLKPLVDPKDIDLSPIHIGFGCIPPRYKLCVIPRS
compound,measurement,setting,value
"NCCO [Etn, monoethanolamine]",IC50,CYP2E1,> 100 µM
same,"IC50, cell proliferation",MDA-MB-468,550 µg/mL
same,increase of intracellular PhosE levels relative to control cells,PC-3 cells [1],~ 40 fold
same,reduction of cell survival,"PC-3 cells [2]; 0.5 mg/ml, PC-3, 48h",~ 38%
same,reduction in cell proliferation,"PC-3 cells [2]; 1 mg/ml Etn alone, PC-3, 48h",~ 33%
same,"half-maximal concentration (IC50), cell proliferation","PC-3 cells [2]; PC-3, MTT, 48h",~ 0.88 mg/ml
same,glucose content in cells versus control,PC-3 cells [3],significantly reduced
same,glutamine content in cells versus control,PC-3 cells [3],significantly reduced
same,decrease in cell viability,CK KD PC-3 cells,~ 11%
same,reduction in tumor volume,DU145 xenografts; [15],~ 42%
same,reduction in tumor weight,DU145 xenografts; [15],~ 29%
same,change in body weight over treatment course,"DU145 xenografts; 40 mg/kg oral, 4 weeks, DU145 tumor bearing mice",no apparent change in body weight
same,Annexin-V positive cells upon treatment,PC-3 cells [4],~ 25%
same,acute toxicity,"Acute oral toxicity; single oral dose 5 g/kg (limit dose), male and female rats, monitored one week",does not induce any acute toxicity
same,survival after one week,"Acute oral toxicity; single oral dose 5 g/kg, five male and five female rats",all rats were alive
same,"IC50, cell proliferation",CFPAC,1900 µg/mL
same,Ki67-positive cells in treated tumors,Ki67,~ 40%
same,stability in SIF,"[5]; SIF pH 6.8, over time (0-120 min), LC-MS/MS",remained unchanged
same,"IC50, cell proliferation",OVCAR-3,290 µg/mL
same,IC50,CYP1A2; read-out: IC50 CYP1A2,> 100 µM
same,stability in SGF,[6],stable
same,reduction of OCR compared to controls,PC-3 cells [7],~ 26%
same,IC50,CYP2C8,> 100 µM
same,IC50,CYP2B6,> 100 µM
same,effect on cell survival,RWPE-1 cells,unaffected
same,dependence of absorption on formulation pH or acid,[8],independent of pH
same,reduction of cell survival,[9],30–52%
same,Cmax of Etn relative to Cmax of PhosE,[10]; after oral Etn 40 mg/kg,32 fold
same,Cmax,[10]; after oral Etn 40 mg/kg,17370 ng/mL
same,time to reach peak plasma concentration,[10]; after oral Etn 40 mg/kg,10 min
same,Cmax,[10]; after oral PhosE 60 mg/kg,4320 ng/mL
same,glucose content in tumors versus control,PC-3-luc tumors,significantly reduced
same,glutamine content in tumors versus control,PC-3-luc tumors,significantly reduced
same,increase in p53 transcript levels compared to controls,p53 transcript,1.2 fold
same,IC50,CYP2C9,> 100 µM
same,IC50,CYP3A4,> 100 µM
same,reduction in tumor volume,"PC-3-luc xenografts; 40 mg/kg oral gavage, pH 5 (phosphoric acid), 4 weeks",~ 67%
same,reduction in tumor weight,PC-3-luc xenografts; [15],~ 55%
same,change in body weight over treatment course,"PC-3-luc xenografts; 40 mg/kg oral, 4 weeks, PC-3-luc tumor bearing mice",no apparent change in body weight
same,change in intratumoral Etn levels versus control mice,PC-3-luc xenografts; [16],did not observe any significant change
same,"intratumoral PhosE level, increase over control mice",PC-3-luc xenografts; [16],~ 38%
same,IC50,CYP2A6,> 100 µM
same,decrease in colony numbers,PC-3 cells [11],~ 97%
same,reduction in HIF1-α transcripts levels compared to control cells,HIF1-α transcripts,50 fold
same,IC50,CYP2C19,> 100 µM
same,decrease in tumor volume,HCT116 xenograft; 40 mg/kg oral gavage,~ 44%
same,change in body weight over treatment course,"HCT116 xenograft; 40 mg/kg oral, HCT116 tumor bearing mice",no apparent change in body weight
same,IC50,CYP2D6,> 100 µM
same,HIF1-α protein expression in treated versus control tumors,HIF1-α,downregulation
"NCCOP(=O)(O)O [PhosE, phosphoethanolamine]",IC50,CYP2E1,> 100 µM
same,increase of intracellular PhosE levels relative to control cells,PC-3 cells [1],~ 15 fold
same,decrease in concentration in SIF,"[5]; SIF pH 6.8, after 2h",~ 35%
same,inhibition of proliferation and colony formation,[12],ineffective
same,IC50,CYP1A2,> 100 µM
same,stability in SGF,[6],stable
same,IC50,CYP2C8,> 100 µM
same,IC50,CYP2B6,> 100 µM
same,Cmax,[10]; after oral Etn 40 mg/kg,550 ng/mL
same,time to reach peak plasma concentration,[10]; after oral Etn 40 mg/kg,10 min
same,Cmax,[10]; after oral PhosE 60 mg/kg,1140 ng/mL
same,oral bioavailability,"[10]; oral Etn 40 mg/kg, PhosE 60 mg/kg vs intravenous 2 and 3 mg/kg",19%
same,volume of distribution (Vd),[13]; intravenous PhosE 3 mg/kg,4.82 L/kg
same,clearance (CL),"[13]; intravenous, Etn 2 mg/kg, PhosE 3 mg/kg",101.92 mL/min/kg
same,IC50,CYP2C9,> 100 µM
same,IC50,CYP3A4,> 100 µM
same,IC50,CYP2A6,> 100 µM
same,effect on colony numbers compared to control cells,PC-3 cells [11],ineffective
same,IC50,CYP2C19,> 100 µM
same,partitioning into RBCs (blood to plasma concentration ratio),[14],lack of preferential partitioning into RBCs
same,IC50,CYP2D6,> 100 µM
